Experimental data from publication PMC9067978, “Design, synthesis, and molecular docking studies of novel pomalidomide-based PROTACs as potential anti-cancer agents targeting EGFR^WT and EGFR^T790M” (Journal of Enzyme Inhibition and Medicinal Chemistry, 2022).

What was measured:
EGFR^T790M = biological target: T1, EGFR^T790M (Homo sapiens, UniProt P00533, T790M); test: EGFR^T790M kinase inhibitory assay (HTRF); type: biochemical; conditions: ATP 1.65 µM, mean ± S.D of three experiments, read-out: EGFR^790M IC50
T1 construct: purchased Sigma
Procedure: This test used HTRF[44] assay with EGFR^WT and EGFR^T790M (Sigma). For the first 5 minutes, the evaluated compounds were incubated with EGFR^WT and/or EGFR^T790M and their substrates in the enzymatic buffer. […] The assay was performed at 37 °C for 30 minutes. The addition of EDTA-containing detection reagents halted the process. After one hour detection period, GraphPad Prism 5.0 was used to calculate the IC50 values. For each concentration, three separate trials were carried out.

MCF-7 [1] = test: Annexin V/propidium iodide apoptosis assay, MCF-7; type: cell-based, human; conditions: 3.92 µM, 24 hours
Procedure: The double staining Annexin V/propidium iodide technique was performed to assess the mechanism of cell death and apoptosis-inducing activity.[46] […] As shown in (Figure 7 (A and B).
The negative control was chosen to be DMSO. The cells were then collected and washed twice in PBS. The cells were separated using centrifugation. An apoptosis detection kit (BD Biosciences, SanJose, CA) was used in this investigation. Following the manufacturer’s instructions, the cells were dyed with Annexin V-FITC and propidium iodide (PI) in the binding buffer for 20 minutes at 37 °C in the darkness. A flow cytometer was used to assess the binding of Annexin V-FITC and PI. The frequencies in all quadrants were investigated using the Flowjo program.[53]

MCF-7 [2] = test: MTT anti-proliferative assay, MCF-7
Procedure: The anti-proliferative activity was quantified in the following way. At a density of 3–8 × 10^3 cells per well, human cancer cell lines were introduced to 96-well plates. The wells were then incubated at 37 °C for 12 hours in 5% CO2 incubator. To determine the DMSO content, the culture media was swapped with 0.1 ml of fresh medium containing graded amounts of the test compounds for each well. Incubation time for the wells was two days. The cells were then cultured in 100 µl MTT solution (5 µg ml^−1) for another 4 hours in each well.
The absorbance of each well was measured at 490 nm with an automated ELISA reader system (TECAN, CHE) after MTT-formazan crystals were dissolved in 100 µl of DMSO. The IC50 values were calculated using nonlinear regression fitting models (Graph Pad, Prism Version 5). The results were expressed as means ± SD and were based on the average of three separate, duplicate trials.

T1 sequence (P00533 25-1210 T790M): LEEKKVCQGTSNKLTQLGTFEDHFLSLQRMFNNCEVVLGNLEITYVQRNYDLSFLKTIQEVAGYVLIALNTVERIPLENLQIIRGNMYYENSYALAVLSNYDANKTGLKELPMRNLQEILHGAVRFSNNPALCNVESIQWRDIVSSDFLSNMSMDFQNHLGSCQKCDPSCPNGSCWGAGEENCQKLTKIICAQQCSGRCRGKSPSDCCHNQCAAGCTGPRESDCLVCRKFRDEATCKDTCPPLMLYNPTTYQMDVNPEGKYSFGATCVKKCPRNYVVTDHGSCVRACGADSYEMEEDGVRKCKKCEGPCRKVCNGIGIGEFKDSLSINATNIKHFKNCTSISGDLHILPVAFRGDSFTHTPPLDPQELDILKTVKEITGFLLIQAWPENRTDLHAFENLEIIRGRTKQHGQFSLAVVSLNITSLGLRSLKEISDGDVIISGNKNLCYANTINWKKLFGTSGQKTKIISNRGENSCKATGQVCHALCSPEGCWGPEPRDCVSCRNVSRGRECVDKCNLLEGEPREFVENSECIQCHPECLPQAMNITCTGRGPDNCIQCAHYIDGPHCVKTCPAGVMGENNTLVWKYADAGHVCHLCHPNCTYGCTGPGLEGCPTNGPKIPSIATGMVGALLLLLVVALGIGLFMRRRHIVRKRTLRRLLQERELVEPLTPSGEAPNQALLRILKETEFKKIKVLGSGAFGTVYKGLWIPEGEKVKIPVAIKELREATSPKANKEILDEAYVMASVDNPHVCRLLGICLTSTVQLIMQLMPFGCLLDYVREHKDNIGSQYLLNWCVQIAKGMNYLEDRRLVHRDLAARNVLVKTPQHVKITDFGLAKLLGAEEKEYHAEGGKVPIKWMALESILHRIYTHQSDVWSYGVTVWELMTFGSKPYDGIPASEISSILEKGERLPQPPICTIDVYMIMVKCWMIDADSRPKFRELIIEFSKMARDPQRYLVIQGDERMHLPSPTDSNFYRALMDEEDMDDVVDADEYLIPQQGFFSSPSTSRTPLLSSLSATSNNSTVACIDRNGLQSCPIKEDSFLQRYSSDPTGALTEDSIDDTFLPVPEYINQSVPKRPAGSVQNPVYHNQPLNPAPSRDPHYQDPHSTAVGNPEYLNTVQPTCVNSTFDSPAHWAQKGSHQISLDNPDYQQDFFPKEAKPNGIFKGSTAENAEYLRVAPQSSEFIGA

IC50 (EGFR^T790M): 4.02 ± 0.19 µM | IC50 (MCF-7 [2]; Homo sapiens, MCF7, read-out: IC50 MCF-7): 3.92 ± 0.19 µM
Compound: Cn1c(=O)c(C(=O)NNCCOCCOCC(=O)Nc2cccc3c2C(=O)N(C2CCC(=O)NC2=O)C3=O)nc2ccccc21 (stereo not drawn) [Compound 16, N-(2-(2,6-dioxopiperidin-3-yl)-1,3-dioxoisoindolin-4-yl)-2-(2-(2-(2-(4-methyl-3-oxo-3,4-dihydroquinoxaline-2-carbonyl) hydrazinyl)ethoxy)ethoxy) acetamide]
cellular apoptosis, early and late, times vs control, MCF-7 (MCF-7 [1]): ~9 times | early apoptosis ratio, MCF-7 (MCF-7 [1]): 4.18% | late apoptosis ratio, MCF-7 (MCF-7 [1]): 5.07% | folds more active than erlotinib, MCF-7 (MCF-7 [2]; ratio of cytotoxic IC50 to erlotinib): 5.55 folds
